Entries after “also recorded” stand apart in the source; their conditions may differ.
Legend:
[1] = system: PANC1; assay: Alamar blue proliferation assay, PANC1; assay type: cell-based, human; conditions: 10 μM, 4 days
Procedure: (§1) Human T-ALL cell lines RPMI 8402 and KOPTK1, and pancreatic cancer cell line PANC1 as well as nRas driven melanoma cells were seeded in a 96 well plate and treated with 10 μM concentration of 6-(4-Tert-Butylphenoxy)Pyridin-3-Amine (I3) and DAPT for several days. Their growth inhibitory effects were compared with cells treated with equal amount of DMSO. Using Alamar blue assay, the growth kinetics of RPMI 8402 and KOPTK1 were followed for upto 6 days, while PANC1 and nRas melanoma cells were monitored for 4 days. 6-(4-Tert-Butylphenoxy)Pyridin-3-Amine (I3) treatment of RPMI 8402, KOPTK1. […] Statistical analyses were done using student's t.test. *=p value<0.05. ns=not significant.
(§2) Alamarblue® proliferation assays were performed to determine the growth kinetics of Notch inhibitor treated cells. Alamar Blue® consists of a cell permeable substrate resazurin. In metabolically active and proliferating cells, resazurin is converted to resorufin due to an intrinsic reducing power of live cells and produces a red fluorescence. Therefore production of resorufin serves as an indicator of the viability of the cell population.
(§3) Proliferation assays were performed by seeding 5000 cells/well in a 96 well plate. Cells were treated with DMSO or Notch inhibitors for different time intervals. […] Alamarblue readout was taken using Tecan F500 (Tecan) multiplate reader. […]

[2] = system: HCC1187 human breast cancer cell line; assay: Alamar blue proliferation assay, HCC1187; assay type: cell-based; conditions: 6 days
Procedure: (§4) FIGS. 5A-5E show 6-(4-Tert-Butylphenoxy)Pyridin-3-Amine (I3) blocks NICD dependent growth of human cancer cells. […] Western blot analyses were carried out for Hes1 protein using Hes1 specific antibodies. […] Growth kinetics of the parental cell line was followed over 5 days using Alamar blue readout. […] This mutation renders this cell line insensitive to γ-secretase inhibitor treatment. […] The cells were treated with DMSO, γ-secretase inhibitor DAPT and I3 for 6 days. Alamar blue readout was taken at day 0, day 2, day 4 and day 6. Eight replicates were used for each treatment and time point. […] P values were calculated using Student's t.test. *=p value<0.05. ns=not significant.
as §2, §3

[3] = system: DND41-NICD cells; assay: Alamar blue proliferation assay, DND41-NICD; assay type: cell-based, human; conditions: over 5 days
Procedure: as §4
(§5) Alamarblue® proliferation assays were performed to determine the growth kinetics of Notch inhibitor treated cells. […] In metabolically active and proliferating cells, resazurin is converted to resorufin due to an intrinsic reducing power of live cells and produces a red fluorescence. […]
(§6) Proliferation assays were performed by seeding 5000 cells/well in a 96 well plate. […] Alamarblue readout was taken using Tecan F500 (Tecan) multiplate reader.
(§7) 6-(4-Tert-Butylphenoxy)Pyridin-3-Amine (I3) can block NICD mediated activation of the Notch pathway (FIGS. 1A-D). […] In addition, these two cell lines were also monitored over several days for anti-proliferative effects of 6-(4-Tert-Butylphenoxy)Pyridin-3-Amine (I3) and DAPT.

[4] = system: KOPTK1; assay: Alamar blue proliferation assay, KOPTK1; assay type: cell-based, human; conditions: 10 μM, up to 6 days
Procedure: as §1, §2, §3

[5] = system: Notch signalling via DL4:N1 ligand-receptor pair (Notch1); assay: DL4:N1 coculture assay, Notch driven luciferase reporter; assay type: cell-based, mouse; conditions: 24 hours; for Notch signalling activation (Notch driven luciferase), concentration dependence: 2, 5 and 10 μM
[6] = system: Notch signalling via DL4:N2 ligand-receptor pair (Notch2); assay: DL4:N2 coculture assay, Notch driven luciferase reporter; assay type: cell-based; conditions: 10 μM, 24 hours
Text: Next Applicants investigated whether I3 could block pathway activation via other Notch receptors or is it specific to Notch1 signalling. To address this, a coculture assay was used where Notch signalling was activated via DL4:N1 or DL4:N2 ligand receptor pairs.

[7] = system: Notch-independent RAJI cells; assay: Alamar blue proliferation assay, RAJI; assay type: cell-based; conditions: control line with no known Notch mutations
Procedure: as §2
Proliferation assays were performed by seeding 5000 cells/well in a 96 well plate. Cells were treated with DMSO or Notch inhibitors for different time intervals. Each treatment for every time interval was carried out in 8 replicates. To determine the growth kinetics, 10 μl of Alamar Blue® (Invitrogen) was added to each well and incubated for 4 hours. Alamarblue readout was taken using Tecan F500 (Tecan) multiplate reader.
As treatment of the human T-ALL cell lines and PANC1 pancreatic cancer cell line with 6-(4-Tert-Butylphenoxy)Pyridin-3-Amine (I3) induced a downregulation of Notch signalling, Applicants questioned whether this inhibition of the pathway translates into growth arrest in cancer cells. To this end, RPMI 8402, KOPTK1, PANC1 and nRas driven melanoma cell lines were grown in the presence or absence of 6-(4-Tert-Butylphenoxy)Pyridin-3-Amine (I3) for several days and their proliferative index was measured using the Alamar blue assay. […]

[8] = system: DND41-Parental cell line; assay: Alamar blue proliferation assay, DND41-Parental; assay type: cell-based, human; conditions: over 5 days
Procedure: as §4, §5, §6, §7

[9] = system: Hes1 in DND41-Parental cells; assay: Hes1 Western blot in DND41-Parental cells; assay type: cell-based, human; conditions: 24 hours
Procedure: Cells were lysed in RIPA buffer (50 mM Tris.Cl, pH 7.5, 150 mM NaCl, 1% nonidet P-40, 0.5% sodium deoxycholate and 0.1% SDS) for 30 minutes at 4° C. Lysed cells were centrifuged to remove the debris at 14000 rpm at 4° C. Supernatant was transferred to a new eppendorf tube. The protein concentration was determined by Bradford assay using spectrophotometer (Ultrospec 3000 pro). 40 μg of protein were denatured in 1×SDS gel loading buffer (100 mM Tris.Cl, pH 6.8, 200 mM DTT, 4% SDS, 0.2% bromophenol, 20% glycerol) by heating at 99° C. for 5 minutes. Denatured protein samples were stored on ice until loading on to the acrylamide gel. The samples were run on 8% or 10% acrylamide gel in Tris-glycine electrophoresis buffer (25 mM Tris, 250 mM glycine, 0.1% SDS). […]
For immunoblotting, membranes were blocked with 5% milk and incubated overnight with primary antibodies at 4° C. […] Signal was detected with Super Signal West chemiluminescent substrate (Thermo Scientific, catalog number 34077).
as §7

Compound | proliferation (Alamar blue) [1] | proliferation (Alamar blue) [2] | proliferation (Alamar blue) [3] | proliferation (Alamar blue) [4] | Notch signalling activation (Notch driven luciferase), concentration dependence [5] | DL4:N2 (Notch2) driven pathway activation [6] | proliferation [7] | proliferation (Alamar blue) [8] | Hes1 protein [9] | IC50 value, Notch signalling in DL4:N1 coculture assay ([5]; increasing concentration 2-10 μM)
C[C@H](NC(=O)Cc1cc(F)cc(F)c1)C(=O)N[C@H](C(=O)OC(C)(C)C)c1ccccc1 [DAPT, N—[N-(3,5-difluorophenacetyl-Lalanyl)]-(S)-phenylglycine t-butyl ester, reference compound] | induced a significant proliferation block | did not inhibit proliferation; also recorded: did not alter the growth kinetics | did not have a significant impact on their proliferation | induced a significant proliferation block | causes a concentration dependent decrease in Notch signalling activation | block Notch1 and Notch2 induced pathway activation | neither DAPT nor 6-(4-Tert-Butylphenoxy)Pyridin-3-Amine (I3) had any effect on the proliferation | caused a significant proliferative block; also recorded: caused a proliferation arrest | led to a downregulation of Hes1; also recorded: caused a downregulation of Hes1 in DND41-Parental cells | 
CC(C)(C)c1ccc(Oc2ccc(N)cn2)cc1 [I3, 6-(4-Tert-Butylphenoxy)Pyridin-3-Amine] | induced a significant proliferation block; also recorded: caused a significant reduction in their growth potential | significantly induced a proliferation block; also recorded: caused statistically significant inhibition of cell proliferation | induced a proliferation arrest; also recorded: able to block proliferation of NICD overexpressing leukemic cell lines which are resistant to DAPT | induced a significant proliferation block; also recorded: caused a significant reduction in their growth potential | blocks Notch signalling in a concentration dependent manner; also recorded: causes a concentration dependent decrease in Notch signalling activation | caused an inhibition of Notch signalling via both DL4:N1 and DL4:N2 ligand-receptor pairs; also recorded: block Notch1 and Notch2 induced pathway activation | neither DAPT nor 6-(4-Tert-Butylphenoxy)Pyridin-3-Amine (I3) had any effect on the proliferation | caused a significant proliferative block; also recorded: caused a proliferation arrest | led to a downregulation of Hes1; also recorded: caused a downregulation of Hes1 in DND41-Parental cells | in the lower μM range
